Patent US10093973B2, “Polymerase compositions and methods” (LIFE TECHNOLOGIES CORPORATION, priority 2009, dated 2018)
Where a chain is given by its changes, count along the chain named.

Columns and labels:
[1] = tested on: AF647-C6-dG6P and Alexa Fluor 546 dye-labeled primer-template duplex; assay: Stopped-flow measurement of tpol (nucleotide incorporation kinetics); type: biochemical; design: unit not given here; conditions: tpol = 1/kpol; 7 μM AF647-C6-dG6P, 330 nM polymerase, 100 nM template/primer duplex, 2 mM MnCl2
Description: In this example, the t−1 and tpol values of a Phi-29 polymerase comprising the amino acid sequence of SEQ ID NO: 1 and a modified B103 polymerase comprising the amino acid sequence of SEQ ID NO: 8 (referred to as “mB103 in the table below) and further including amino acid substitutions at various positions were measured using a stopped-flow procedure. The stopped-flow techniques for measuring tpol (1/kpol) followed the techniques described by MP Roettger (2008 Biochemistry 47:9718-9727; M. Bakhtina 2009 Biochemistry 48:3197-320).
Stopped-Flow Measurements of tpol
The template sequence (SEQ ID NO: 44) further included an Alexa Fluor 546 dye moiety bonded to the 5′ position of the template.
The kinetics of nucleotide incorporation by each polymerase was measured in an Applied Photophysics SX20 stopped-flow spectrometer by monitoring changes in fluorescence from the dye-labeled primer-template duplex complexed to enzyme, following the mixing of the enzyme-DNA complex with dye-labeled nucleotides. These dye-labeled nucleotides comprise terminal-phosphate-labeled nucleotides having an alkyl linker with a functional amine group attached to the dye, and have the general structure shown in FIG. 11. This structure includes a sugar bonded to a hexaphosphate chain at the 5′ carbon position, and to a nucleotide base (denoted as “N”). The terminal phosphate group of the hexaphosphate is linked to a 6-carbon linker, and the other end of the 6-carbon linker is attached to a dye moiety (denoted as “dye”), typically through an amide bond. In this example, the particular dye-labeled nucleotide added was a labeled nucleotide hexaphosphate comprising a guanine base at the N (base) position and an Alexa Fluor 647 (AF647) at the dye position, and is referred to herein as “AF647-C6-dG6P”.
The primer and template were annealed to form a dye-labeled primer-template duplex using standard methods. This duplex was preincubated with polymerase. The mixture included 330 nM recombinant DNA polymerase, 100 nM template/primer duplex in buffer (“reaction buffer”) comprising 50 mM Tris-HCl, pH 7.5, 50 mM NaCl, 4 mM DTT, 0.2% BSA, and 2 mM MnCl2. The dye-labeled nucleotide AF647-C6-dG6P was then added to a final concentration of 7 μM, and the resulting fluorescence was monitored over time.
The averaged (5 traces) stopped-flow fluorescence traces (>1.5 ms) were fitted with a double exponential equation (1) to extrapolate the rates of the nucleotide binding and product release, Fluorescence=A1*e^−k1*t+A2*e^−kpol*t+C (equation 1) where A1 and A2 represent corresponding fluorescence amplitudes, C is an offset constant, and k1 and kpol are the observed rate constants for the fast and slow phases of the fluorescence transition, respectively.

[2] = tested on: AF647-C6-dG6P in [enzyme.DNA.nucleotide] ternary complex with dideoxy-primer/template duplex; assay: Stopped-flow measurement of t−1 (nucleotide dissociation from ternary complex); type: biochemical; design: unit not given here; conditions: t−1 = 1/k−1; ternary complex with 7 μM AF647-C6-dG6P chased with 50 μM non-labeled nucleotide, 2 mM MnCl2
Description: Stopped-Flow Measurements of t−1
The stopped-flow techniques for measuring t−1 ([…]) followed the techniques described by M. Bakhtina (2009 Biochemistry 48:3197-3208).
The rate of the nucleotide dissociation ([…]) from the ternary complex of [enzyme.DNA.nucleotide] was measured in an Applied Photophysics SX20 stopped-flow spectrometer by monitoring changes […] a duplex Alexa fluor 546 dye-labeled-DNA template following the mixing of the [enzyme.DNA.labeled nucleotide] ternary complex with 50 μM cognate non-labeled deoxynucleoside triphosphate in a buffer containing 50 mM Tris-HCl (pH 7.5), 50 mM NaCl, 4 mM DTT, 0.2% BSA, and 2 mM MnCl2.
The ternary complexes were prepared using: 330 nM polymerase, 100 nM template/primer duplex, and 7 μM terminal phosphate-labeled nucleotides (AF647-C6-dG6P).
The averaged stopped-flow fluorescence traces (>1.5 msec) were fitted with a single exponential equation (2) to extrapolate the rate of the nucleotide dissociation (k−1) from the [enzyme.DNA.nucleotide] ternary complex. Fluorescence=A1*e^−k−1*t+C (equation 2) where A1 represents the corresponding fluorescence amplitude, C is an offset constant, and k−1 and the observed rate constants for the fluorescence transition.

- t−1 [2]: 16
Substance: mB103 (SEQ ID: 8): B103 polymerase triple mutant with D166A, F383L and D384N
- tpol [1]: 14
